Experimental data from US11306081B2, “Phenylacetamides as inhibitors of rock” (BRISTOL-MYERS SQUIBB COMPANY, priority 2017, dated 2022).

Each compound was assayed against ROCK2 (Homo sapiens (Human), UniProt O75116) (assay: ROCK assay (LABCHIP 3000 peptide phosphorylation assay)). Conditions: 5 μM ATP, 1.5 μM peptide substrate, dose-response.
Chain of ROCK2 (O75116 whole entry, species assumed): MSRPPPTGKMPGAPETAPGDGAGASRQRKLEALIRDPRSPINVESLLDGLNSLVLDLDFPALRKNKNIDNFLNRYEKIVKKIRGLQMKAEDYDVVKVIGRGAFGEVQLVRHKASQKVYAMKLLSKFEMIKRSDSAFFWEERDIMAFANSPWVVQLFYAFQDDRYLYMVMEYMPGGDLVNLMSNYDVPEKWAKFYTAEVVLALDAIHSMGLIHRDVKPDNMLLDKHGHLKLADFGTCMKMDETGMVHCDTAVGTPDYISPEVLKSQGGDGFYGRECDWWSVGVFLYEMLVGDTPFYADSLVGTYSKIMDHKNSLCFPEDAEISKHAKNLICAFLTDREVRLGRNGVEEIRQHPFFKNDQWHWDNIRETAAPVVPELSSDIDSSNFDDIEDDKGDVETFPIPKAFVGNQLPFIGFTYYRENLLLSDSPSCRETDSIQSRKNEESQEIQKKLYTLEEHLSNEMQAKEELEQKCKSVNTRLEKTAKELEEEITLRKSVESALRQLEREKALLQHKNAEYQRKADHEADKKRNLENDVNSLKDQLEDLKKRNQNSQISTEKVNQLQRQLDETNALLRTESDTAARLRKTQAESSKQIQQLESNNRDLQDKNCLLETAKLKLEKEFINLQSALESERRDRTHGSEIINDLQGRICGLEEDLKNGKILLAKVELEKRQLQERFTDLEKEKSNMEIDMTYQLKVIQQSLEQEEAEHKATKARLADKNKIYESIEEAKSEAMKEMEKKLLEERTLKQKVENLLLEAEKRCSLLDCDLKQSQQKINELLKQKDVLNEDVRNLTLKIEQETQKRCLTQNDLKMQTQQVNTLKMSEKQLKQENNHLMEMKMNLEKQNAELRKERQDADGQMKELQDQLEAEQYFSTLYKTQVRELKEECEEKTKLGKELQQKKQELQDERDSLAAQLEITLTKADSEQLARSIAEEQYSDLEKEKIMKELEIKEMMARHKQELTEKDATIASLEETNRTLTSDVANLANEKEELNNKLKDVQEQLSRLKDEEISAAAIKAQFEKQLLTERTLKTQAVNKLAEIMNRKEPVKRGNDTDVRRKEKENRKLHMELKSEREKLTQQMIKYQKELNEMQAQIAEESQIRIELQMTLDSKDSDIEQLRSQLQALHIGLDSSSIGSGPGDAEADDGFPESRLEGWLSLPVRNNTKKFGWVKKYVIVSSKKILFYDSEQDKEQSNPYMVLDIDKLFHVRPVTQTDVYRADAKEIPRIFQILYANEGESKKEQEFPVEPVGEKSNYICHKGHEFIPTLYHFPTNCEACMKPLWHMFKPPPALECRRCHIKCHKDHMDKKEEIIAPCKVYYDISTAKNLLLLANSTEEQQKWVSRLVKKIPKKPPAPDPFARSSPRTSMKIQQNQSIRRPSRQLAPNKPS
Type: biochemical
Procedure: The effectiveness of compounds of the present invention as ROCK inhibitors can be determined in a 30 μL assay containing 20 mM HEPES, pH 7.5, 20 mM MgCl2, 0.015% Brij-35, 4 mM DTT, 5 μM ATP and 1.5 μM peptide substrate (FITC-AHA-AKRRRLSSLRA-OH) (SEQ ID No. 1). Compounds were dissolved in DMSO so that the final concentration of DMSO was <2%, and the reaction was initiated with Rho kinase variants. After incubation, the reaction was terminated by the addition of EDTA and the phosphorylated and non-phosphorylated peptides separated using a LABCHIP® 3000 Reader (Caliper Life Sciences). […] Compounds were tested in dose-response format, and the inhibition of kinase activity was calculated at each concentration of compound. The inhibition data were fit using a curve-fitting program to determine the IC50; i.e., the concentration of compound required to inhibit 50% of kinase activity.
An IC50 of 0.007 µM was found for `Cn1ccc(-c2ccc3sc(NC(=O)Cc4ccc(Oc5ncccc5C(N)=O)c(F)c4)nc3c2)n1` [Example 033, 2-(2-fluoro-4-(2-((5-(1-methyl-1H-pyrazol-3-yl)benzo[d]thiazol-2-yl)amino)-2-oxoethyl)phenoxy)nico-tinamide] in this work. An IC50 of 3.46 µM was found for `COCCn1c(NC(=O)Cc2ccc(Oc3ncccc3C(N)=O)c(F)c2)nc2cc(C(N)=O)ccc21` [Example 156, 2-(2-(4-((3-carbamoyl-pyridin-2-yl)oxy)-3-fluorophenyl)-acetamido)-1-(2-methoxyethyl)-1H-benzo[d]-imidazole-5-carboxamide] in this work. An IC50 of 0.035 µM was found for `COc1ccc2sc(NC(=O)Cc3ccc(Oc4ncccc4C(N)=O)cc3)nc2c1` [Example 002, 2-(4-(2-((5-methoxybenzo[d]thiazol-2-yl)amino)-2-oxoethyl)phenoxy) Nicotinamide] in this work. An IC50 of 0.804 µM was found for `COCCn1c(NC(=O)Cc2ccc(Oc3ncccc3C(N)=O)c(F)c2)nc2ccc(OC)cc21` [Example 157, 2-(2-fluoro-4-(2-((6-methoxy-1-(2-methoxyethyl)-1H-benzo[d]-imidazol-2-yl)-amino)-2-oxo-ethyl)phenoxy)-nicotinamide] in this work. An IC50 of 0.058 µM was found for `CC(C)(O)COc1ccc2c(c1)CCc1sc(NC(=O)Cc3ccc(Oc4ncccc4C(N)=O)c(Cl)c3)nc1-2` [Example 113, 2-(2-chloro-4-(2-((7-(2-hydroxy-2-methylpropoxy)-4,5-dihydronaphtho[1,2-d]thiazol-2-yl)amino)-2-oxoethyl)phenoxy)nicotinamide] in this work. An IC50 of 0.006 µM was found for `NC(=O)c1cccnc1Oc1ccc(CC(=O)Nc2nc3cc(OCc4ccccc4)ccn3n2)cc1F` [Example 143, 2-(4-(2-((7-(benzyloxy)-[1,2,4]triazolo[1,5-a]pyridin-2-yl)amino)-2-oxoethyl)-2-fluorophenoxy)nicotinamide] in this work. An IC50 of 0.044 µM was found for `Cc1cccc(-c2nc(NC(=O)Cc3ccc(Oc4ncccc4C(N)=O)c(F)c3)sc2C)n1` [Example 151, 2-(2-fluoro-4-(2-((5-methyl-4-(6-methylpyridin-2-yl)thiazol-2-yl)amino)-2-oxoethyl)phenoxy)nicotinamide] in this work. An IC50 of 0.83 µM was found for `NC(=O)c1ccc2nc(NC(=O)Cc3ccc(Oc4ncccc4C(N)=O)cc3)sc2c1` [Example 066, 2-(2-(4-((3-carbamoylpyridin-2-yl)oxy)phenyl)acet-amido)benzo[d]thi-azole-6-carboxamide] in this work. An IC50 of 0.194 µM was found for `NC(=O)c1cccnc1Oc1ccc(CC(=O)Nc2nc3ccccc3s2)cc1` [Example 049, 2-(4-(2-(benzo[d]thiazol-2-ylamino)-2-oxoethyl)phenoxy) nicotinamide] in this work. An IC50 of 0.423 µM was found for `NC(=O)c1cccnc1Oc1ccc(CC(=O)Nc2nc(-c3cccc(F)c3)cs2)cc1` [Example 064, 2-(4-(2-((4-(3-fluorophenyl)thia-zol-2-yl)amino)-2-oxoethyl)phenoxy) nicotinamide] in this work. An IC50 of 0.026 µM was found for `NC(=O)c1cccnc1Oc1ccc(CC(=O)Nc2nc3cc(F)ccc3n2CC2CC2)cc1F` [Example 165] in this work. An IC50 of 0.147 µM was found for `NC(=O)c1cccnc1Oc1ccc(CC(=O)Nc2nc3cc(C(=O)c4ccccc4)ccc3[nH]2)cc1` [Example 072, 2-(4-(2-((5-benzoyl-1H-benzo[d]imidazol-2-yl)amino)-2-oxoethyl)phenoxy) nicotinamide] in this work. An IC50 of 0.183 µM was found for `Cc1sc(NC(=O)Cc2ccc(Oc3ncccc3C(N)=O)c(F)c2)nc1-c1cnc(N2CCN(C)CC2)nc1` [Example 039, 2-(2-fluoro-4-(2-((5-methyl-4-(2-(4-methylpiperazin-1-yl)pyrimidin-5-yl)thiazol-2-yl)amino)-2-oxoethyl)phenoxy)nico-tinamide] in this work. An IC50 of 0.047 µM was found for `Cc1sc(NC(=O)Cc2ccc(Oc3ncccc3C(N)=O)c(F)c2)nc1-c1ccccn1` [Example 087, 2-(2-fluoro-4-(2-((5-methyl-4-(pyridin-2-yl)thiazol-2-yl)amino)-2-oxoethyl)phenoxy) nicotinamide] in this work. An IC50 of 0.175 µM was found for `Cc1ccc(-c2nc(NC(=O)Cc3ccc(Oc4ncccc4C(N)=O)cc3)sc2C)cc1Cl` [Example 050, 2-(4-(2-((4-(3-chloro-4-methylphenyl)-5-methylthiazol-2-yl)amino)-2-oxoethyl)phenoxy) nicotinamide] in this work.
